Several values for one entry are separate records, joined by “and”; a condition that tells them apart may be missing. Equal values may be shown once.
What was measured:
[1] = system: MUC5AC; parameters: method as in PMID 23187130; details: airway epithelial cells; BIRB796 at high concentration; cited from earlier work
[2] = target: T1, p38α (Homo sapiens, UniProt Q16539); test: KinaseProfiler quantitative kinase assay (Eurofins), MBP substrate; format: biochemical; details: ATP at Km 90 µM, means of duplicate determinations
T1 construct: purchased Eurofins Pharma Discovery Services UK Limited (KinaseProfiler service)
Description: (§1) SU-002 derivatives (SU-001, 003, 004, 005, and 006, shown in Fig. 3A) were synthesized and the inhibitory activities of SU-002 and its derivatives against p38αT106M were tested. […] We then conducted quantitative kinase assay analyses including IC50 using the KinaseProfiler service of Eurofins Pharma Discovery Services. MBP was used as a substrate for all tested p38 isoforms: p38α, p38αT106M, p38γ, and p38δ. All p38 isoforms used were activated using a constitutively active mutant of MKK6. […] Next, we examined their effects in HeLa cells. […] To verify the specificity of SU-005 for p38δ, a FLAG-tagged p38δM107T was constructed and tested in a similar manner.
(§2) Quantitative kinase assay analyses including IC50 were conducted using the KinaseProfiler service of Eurofins Pharma Discovery Services UK Limited.

[3] = target: T2, p38δ (Homo sapiens, UniProt O15264); test: as above; format: biochemical; details: ATP at Km 15 µM, means of duplicate determinations
T2 construct: purchased Eurofins Pharma Discovery Services UK Limited (KinaseProfiler service)
T2 sequence (O15264 1-365): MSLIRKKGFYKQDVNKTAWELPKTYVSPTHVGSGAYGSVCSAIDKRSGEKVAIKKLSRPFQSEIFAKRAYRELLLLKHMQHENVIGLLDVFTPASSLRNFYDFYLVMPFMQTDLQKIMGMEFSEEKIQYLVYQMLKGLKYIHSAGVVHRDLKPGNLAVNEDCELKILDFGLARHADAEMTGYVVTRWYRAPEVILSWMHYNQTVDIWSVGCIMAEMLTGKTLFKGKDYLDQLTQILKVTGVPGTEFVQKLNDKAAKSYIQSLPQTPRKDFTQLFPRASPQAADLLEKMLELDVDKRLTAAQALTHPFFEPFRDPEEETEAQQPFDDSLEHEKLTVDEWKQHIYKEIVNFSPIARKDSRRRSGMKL
Description: as §1, §2

[4] = target: T3, p38αT106M (Homo sapiens, UniProt Q16539, T106M); test: as above; format: biochemical; details: ATP at Km 70 µM, means of duplicate determinations
T3 construct: purchased Eurofins Pharma Discovery Services UK Limited (KinaseProfiler service)
Description: as §1, §2

[5] = target: T4, p38γ (Homo sapiens, UniProt P53778); test: as above; format: biochemical; parameters: purchased Eurofins Pharma Discovery Services UK Limited (KinaseProfiler service); details: ATP at Km 15 µM, means of duplicate determinations
T4 sequence (P53778 1-367): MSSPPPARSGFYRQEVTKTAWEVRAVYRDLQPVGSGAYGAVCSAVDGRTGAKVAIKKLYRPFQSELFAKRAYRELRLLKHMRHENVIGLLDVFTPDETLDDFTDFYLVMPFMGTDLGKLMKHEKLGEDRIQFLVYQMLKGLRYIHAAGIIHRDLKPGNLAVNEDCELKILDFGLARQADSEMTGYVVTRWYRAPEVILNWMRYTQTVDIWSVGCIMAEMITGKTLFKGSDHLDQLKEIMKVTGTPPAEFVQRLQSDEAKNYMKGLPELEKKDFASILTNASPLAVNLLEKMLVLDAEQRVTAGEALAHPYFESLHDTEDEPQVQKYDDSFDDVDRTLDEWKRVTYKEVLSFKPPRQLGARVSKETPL
Description: as §1, §2

[6] = target: T5, GST-p38αT106M (Homo sapiens, UniProt Q16539, T106M); test: In vitro kinase assay, GST-ATF2 substrate, [γ-32P]ATP; format: biochemical
T5 construct: made in house
Description: (§3) Bacterially produced GST-p38α and GST-p38αT106M were used for the kinase assay. GST-ATF2 (1–109)[34] was used as a substrate. The assay conditions used have been previously described. […] DMSO (1 μL) was used instead of compound as a negative control. Then, the mixture was combined with the solution containing 1 μg substrate protein, 185 kBq [γ-^32P]ATP and 20 μΜ ATP to generate a 15 μL reaction mixture and incubated for 30 min at 30 °C. The reaction was terminated by adding 7.5 μL of 3 × SDS sample buffer and boiled for 5 min. Phosphorylated substrate protein was then separated by 12.5% SDS- polyacrylamide gel electrophoresis and visualized by autoradiography.

[7] = target: T6, endogenous p38γ (Homo sapiens, UniProt P53778); test: Endogenous p38γ auto-phosphorylation in HEK293T cells, western blot; format: cell-based; details: 10 μM, 0.2 M NaCl stimulation, Fig. 6
T6 construct: endogenous in cells; host or cells: HEK293T
T6 sequence (P53778 1-367): T4 sequence (P53778 1-367)
Description: For the analyses with HEK293T cells, 1 × 10^5 cells were seeded into each well of a 48-well plate. The next day, 10 μM SU derivative or SB202190 was added 1 h prior to stimulation of the cells with 0.2 M NaCl. The cells were further grown in DMEM supplemented with 10% FBS for 20 min. Then, the cells were rinsed once with PBS and harvested in 1 × SDS sample buffer.

[8] = target: T7, GST-p38αT106M mutant (Homo sapiens, UniProt Q16539, T106M); test: Comparative chemical array screening, binding to GST-p38αT106M; details: Table S2
T7 construct: made in house; host or cells: bacteria (stated for the kinase assay)
Description: Photo-cross-linked chemical arrays were prepared by the previously described method[33] utilizing a photoaffinity proline linker that had both PEG and a polyproline helix as spacers.
The slides were then washed with TBS-T buffer (10 mM Tris/HCl, 150 mM NaCl, 0.05% Tween-20, pH 8.0) three times for 5 min each and centrifuged (480 × g, 1 min) to dry. […] After washing with TBS-T buffer, the slides were incubated with an anti-GST antibody (30 μg/mL) in binding buffer at 30 °C for 1 h. This incubation was followed by another wash step and incubation with a secondary antibody (goat anti-rabbit IgG, Cy5 conjugate, 50 μg/mL in binding buffer) at 30 °C for 1 h. After the final wash step and spin dry, the slides were scanned at 635 nm on a GenePix 4300A microarray scanner (Molecular Devices). The fluorescence intensity (I) of each compound spot was quantified with GenePix 5.0 software with local background correction. Then, the difference (ΔΙ) of the fluorescence intensities between the GST-p38αT106M and GST-p38α-treated arrays was calculated by subtracting Ip38α from IT106M (ΔI = IT106M - Ip38α) for each spot. The mean and standard deviation (SD) of ΔI for all spots on the array were also calculated. The ΔΙ score of each spot was calculated using the following formula; ΔΙ score = (ΔI - mean)/SD. The compounds with a ΔΙ score larger than 2 were determined to be hit compounds for GST-p38αT106M. […]

[9] = target: T8, GST-p38α (Homo sapiens, UniProt Q16539); test: In vitro kinase assay, GST-ATF2 substrate, [γ-32P]ATP; format: biochemical; details: Fig. 2C, SU-002 0.06-7.6 μM
T8 construct: made in house
Description: as §3

T1 sequence (Q16539 whole entry): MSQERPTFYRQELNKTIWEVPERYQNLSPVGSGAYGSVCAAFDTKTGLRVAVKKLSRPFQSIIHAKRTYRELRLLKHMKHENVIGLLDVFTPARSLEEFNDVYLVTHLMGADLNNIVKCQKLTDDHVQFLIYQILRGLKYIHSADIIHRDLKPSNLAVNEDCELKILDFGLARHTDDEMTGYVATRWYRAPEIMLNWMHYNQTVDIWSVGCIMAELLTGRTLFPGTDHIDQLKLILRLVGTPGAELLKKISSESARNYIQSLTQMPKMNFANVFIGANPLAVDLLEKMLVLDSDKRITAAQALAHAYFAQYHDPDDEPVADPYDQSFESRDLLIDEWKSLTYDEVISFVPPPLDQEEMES
T7 sequence (Q16539 whole entry T106M): as the sequence (Q16539 whole entry) above, with T106M counted along it
T5 sequence (Q16539 whole entry T106M): as the sequence (Q16539 whole entry) above, with T106M counted along it
T3 sequence (Q16539 whole entry T106M): as the sequence (Q16539 whole entry) above, with T106M counted along it
T8 sequence (Q16539 whole entry): as the sequence (Q16539 whole entry) above

Row | SMILES | inhibition of production of MUC5AC mRNA and protein [1] | %kinase activity relative to control, p38α ([2]; 1 µM) | %kinase activity relative to control, p38α ([2]; 10 µM) | %kinase activity relative to control, p38δ ([3]; 1 µM) | %kinase activity relative to control, p38δ ([3]; 10 µM) | %kinase activity relative to control, p38αT106M ([4]; 1 µM) | %kinase activity relative to control, p38αT106M ([4]; 10 µM) | %kinase activity relative to control, p38γ ([5]; 1 µM) | %kinase activity relative to control, p38γ ([5]; 10 µM) | inhibition of p38αT106M kinase activity ([6]; 1 μM, Fig. 3B,C) | inhibition of endogenous p38γ phosphorylation [7] | IT106M score ([8]; I score = (I − Imean)/ISD, duplicate spots) | ΔI score ([8]; ΔI = IT106M – Ip38α, ΔI score = (ΔI − ΔImean)/ΔISD, hit if larger than 2) | inhibition of p38α kinase activity [9] | inhibition of p38αT106M kinase activity ([6]; Fig. 2C,D, SU-002 0.012-7.6 μM)
1 | Cc1ccc(-n2nc(C(C)(C)C)cc2NC(=O)Nc2ccc(OCCN3CCOCC3)c3ccccc23)cc1 [BIRB796] | markedly inhibited |  |  |  |  |  |  |  |  |  |  |  |  |  | 
2 | Nc1nnc(Sc2ccnc3cc(Cl)ccc23)s1 [SU-001] |  | 91 ± 13% | 72 ± 2% | 94 ± 2% | 92 ± 1% | 99 ± 0% | 91 ± 6% | 103 ± 8% | 95 ± 2% | did not inhibit |  |  |  |  | 
3 | CC(=O)Nc1nnc(Sc2ccnc3cc(Cl)ccc23)s1 [SU-003] |  | 92 ± 8% | 94 ± 6% | 99 ± 2% | 81 ± 1% | 96 ± 4% | 94 ± 1% | 112 ± 3% | 104 ± 6% |  | no or weak inhibitory activity |  |  |  | 
4 | CCCCCCCC(=O)Nc1nnc(Sc2ccnc3cc(Cl)ccc23)s1 [SU-002] |  | 88 ± 6% | 94 ± 5% | 90 ± 0% | 96 ± 0% | 83 ± 7% | 72 ± 2% | 92 ± 5% | 88 ± 2% | clearly impaired | similarly potent inhibitory activities | 4.80 and 3.66 | 6.30 and 4.89 | this inhibition was not seen | inhibited the kinase activity of p38αT106M in a dose-dependent manner
5 | CCCCCC(=O)Nc1nnc(Sc2ccnc3cc(Cl)ccc23)s1 [SU-004] |  | 91 ± 2% | 86 ± 3% | 100 ± 4% | 97 ± 3% | 99 ± 0% | 94 ± 3% | 111 ± 4% | 104 ± 8% |  | no or weak inhibitory activity |  |  |  | 

Source: paper PMC4949465, “Comparative chemical array screening for p38γ/δ MAPK inhibitors using a single gatekeeper residue difference between p38α/β and p38γ/δ” (Scientific Reports, 2016)
